Data set [1] has as its system reconstructed skin (fibroblasts and keratinocytes). Kind of data set: Histology, immunohistology and in situ hybridization of reconstructed skins. It counts as cell-based, human. The source says: (§1) The method allowing the formation of the reconstructed skin is that described in the French Patent 87-08252 of the 15th Jun. 1987.
(§2) The support of the reconstructed skin model is constituted by a dermal substrate (DS) with a base of collagen-glycosaminoglycan cross-linked by chitosan according to the technique published by Duplan-Perrat et al (J Invest Dermatol 2000 114:365). Fibroblasts are inoculated the inside of the DS in order to obtain an equivalent dermis. The reconstituted skin (RS) is obtained by inoculating the keratinocytes after 15 days (day 15) of culture in equivalent dermis. The dermal fibroblasts are obtained from explants of human prepuces after dermal-epidermal separation and cultured in monolayer in DMEM medium (Sigma) supplemented by 10% fœtal calf serum, 4 mM L-glutamine, EGF (Austral Biologic) at 10 ng/ml, penicillin at 100 UI/ml, gentamicin at 100 μg/ml and amphotericin B at 1 μg/ml. The keratinocytes are from a human skin biopsy sample after dermal-epidermal separation by trypsination. The cells are inoculated nutritive layers (irradiated fibroblasts) and cultured in DMEM and HAM F12 at 30% supplemented with fœetal calf serum at 10%, EGF at 10 ng/ml, hydrocortisone at 1.6 ng/ml, umulin at 0.12 UI/ml, choleratoxin at 0.1 nM, triiodothyronine at 0.2 μM, adenine at 24 μg/ml, 4 mM L-Glutamine, penicillin at 100 UI/ml, gentamicin at 100 μg/ml and amphotericin B at 1 μg/ml.
A mixture with a base of bovine collagen of type I and III (72%), glycosaminoglycan (8%) cross-linked by chitosan (20%) is poured into 6-well plates. The dermal substrates thus obtained are then frozen at −80° C. and lyophilized. The fibroblasts are inoculated in the dermal substrate, rehydrated and sterilized at a rate of 250,000 cells per cm^2. Keratinocytes are inoculated after 15 days (day 15) at a density of 200,000 to 250,000 cells/cm^2. The reconstructed skins are cultured for 8 days in immersion, in the medium described previously supplemented with 50 μg/ml of vitamin C. […]

Data set [2] shares this test system. Kind of data set: Retraction (surface area) of reconstructed skins. It counts as cell-based, human. To be noted: for surface area compared to the initial original surface area: 35 days of culture.
From the text: as §1, §2
A mixture with a base of bovine collagen of type I and III (72%), glycosaminoglycan (8%) cross-linked by chitosan (20%) is poured into 6-well plates. The dermal substrates thus obtained are then frozen at −80° C. and lyophilized. The fibroblasts are inoculated in the dermal substrate, rehydrated and sterilized at a rate of 250,000 cells per cm^2. Keratinocytes are inoculated after 15 days (day 15) at a density of 200,000 to 250,000 cells/cm^2. The reconstructed skins are cultured for 8 days in immersion, in the medium described previously supplemented with 50 μg/ml of vitamin C. Then the reconstructed skins are raised to the air-liquid interface using a simplified culture medium with a DMEM base, supplemented with fœtal calf serum, EGF, hydrocortisone, umulin, L-glutamine, penicillin, gentamicin, and amphotericin B, and ascorbic acid, at the concentrations described above. The reconstructed skins are cultured up to day 60. Samples are taken at day 30 and day 60 for the different analyses.
(§3) βAPN (50 μg/ml) is added immediately upon inoculation, to the culture medium which is renewed every 2 days and applied to the cultures of chondrocytes as well as to those of fibroblasts then of keratinocytes during the formation of the reconstructed skin.

The subject of data set [3] is chondrocytes, fibroblasts, keratinocytes. Kind of data set: Toxicity and multiplication of the cells in culture at the standard concentration. Particulars: 50 μg/ml. In kind it is cell-based. How it is done:
as §3

Data set [4] deals with deep chondrocytes of the cotyloid ligament. Put plainly: Human cotyloid cartilage chondrocytes in 2D culture on plastic. It counts as cell-based. Particulars: hyaluronidase in extraction medium, two weeks, serum. The source says:
b) The cultures of normal human chondrocytes originate from cartilages taken during hip prosthesis or ligamentoplasty surgery, then subjected to enzymatic digestion. These cartilage biopsies are considered as res nullus.
The chondrocytes extracted from the cotyloid ligament have been used for the two-dimensional culture on plastic in the presence of BAPN: the cultures obtained after enzymatic digestion of the cartilages in the presence or absence of hyaluronidase were compared (FIGS. 4 and 5).
The 24-hour radio-labellings with the 14C proline were carried out on the 2nd, 7th and 14th day of culture in the presence of serum and βAPN (day 2, day 7 and day 14 respectively). The pepsinated extracts of culture medium and cell lawn were subjected to electrophoresis then fluorography.
The superficial areas (even numbers) and deep areas (odd numbers) of the cotyloid cartilage were separated before being subjected to enzymatic digestion in the presence or absence of hyaluronidase.

In another data set the test system is Lysyl oxidase. Kind of data set: Lysyl oxidase activity assay with tritiated elastin substrate on culture media of chicken embryo chondrocytes. In kind it is biochemical. How it is done: The Lysyl oxidase activity was assayed with 300,000 dpm of labelled elastin on the Lysine, substrate of the enzyme (Shackelton and Hulmes Anal. Biochem. (1990) 185: 359-362). The determination of the presence of Lysyl oxidases in the cultures of chondrocytes is carried out according to the standard methods of immunodecoration of the supports onto which the bands separated from the proteins extracted from the corresponding culture media or from the cell lawns have been transferred.
Lysyl oxidase activities (inhibited by βAPN and assayed by the production of tritiated water) are secreted in the culture media. The specific activity recorded in the media is stronger on the 7th day of culture than on the 13th day. The extracellular matrix being richer in natural collagenic substrates of the Lysyl oxidase activity on the 13th day of culture, it would thus retain the enzyme in the cell lawn.

SMILES strings stand for the structures. Values joined by “and” are separate entries in the source; they are usually repeats but may differ in a detail not shown here. Equal values may be shown once.

Turning to `N#CCCN` [βAPN, β-aminopropionitrile], the “histology of the reconstructed skins” value in data set [1] (50 μg/ml or 200 μg/ml) is “does not seem to be fundamentally changed”. For the same compound, the “detection of the LOX and LOXL genes by in situ hybridization” value in data set [1] (50 μg/ml, dermis and epidermis) is “slight increase”. Further, the “synthesis of extracellular matrix / colonization of the sponge by the fibroblasts” value in data set [1] (dermis of reconstructed skin) is recorded as “increased synthesis of ECM”. Moreover, the results for the “surface area compared to the initial original surface area” value in data set [2] (50 μg/ml), in data set [2] (200 μg/ml) and in data set [2] (500 μg/ml) were 50%, 40% and 40%, respectively. Further, the “surface area compared to the non-treated control” value in data set [2] (50 μg/ml, after two weeks at the air-liquid interface) is reported as “do not show any significant difference”. In addition, the “reduction in surface area compared to original state” value in data set [2] (500 μg/ml, immersed, before raising to the air-liquid interface) is 17%. The “surface area compared to that of the control” value in data set [2] (200 or 500 μg/ml, after two weeks at the air-liquid interface) is recorded as “significantly greater surface area”. In addition, the “retraction compared to the control” value in data set [2] (skins still in immersed culture) is on record as “significant dose-dependent reduction”. In addition, in data set [3], the “toxicity for the cells” value is reported as “not toxic”. Further, in data set [4], the “preservation of morphology and phenotype (matrix of cartilaginous type, without collagen I)” value is “preserving their morphology and their phenotype”. Further, the “dpm + βAPN (Lysyl oxidase activity assay)” value in the data set with Lysyl oxidase (Experiment 1, substrate no. 1, culture − FCS, + cys, Day 3, caudal chondrocytes, 15% medium P35) is 674 dpm and 718 dpm; in the data set on Lysyl oxidase (Experiment 2, substrate no. 2, culture + FCS, − cys, Day 7, caudal chondrocytes, 25% medium P35), 5296 dpm and 6210 dpm; in the data set with Lysyl oxidase (Experiment 2, substrate no. 2, culture + FCS, − cys, Day 7, cranial chondrocytes, 100% medium P35), 5800 dpm and 6536 dpm; in the data set on Lysyl oxidase (Experiment 2, substrate no. 2, culture + FCS, − cys, Day 13, caudal chondrocytes, 75% medium P35) it was 4344 dpm and 4702 dpm; in the data set on Lysyl oxidase (Experiment 2, substrate no. 2, culture + FCS, − cys, Day 13, cranial chondrocytes, 100% medium P35) it was 4580 dpm and 4618 dpm.

(Values after US20040248871A1, “Use of lysyl oxidase inhibitors for cell culture and tissue engineering” (priority 2001, published 2004).)
